{"source": "patent US9187435B2", "about": "“Bridged Spiro[2.4]heptane ester derivatives” (Actelion Pharmaceuticals Ltd., priority 2010, dated 2015)", "target": "T1, human ALX receptor (Homo sapiens, UniProt P25090)", "T1 construct": "expressed in transfected cells; host or cells: HEK293 (HEK293-hALXR-Gα16)", "T1 sequence (P25090 1-351)": "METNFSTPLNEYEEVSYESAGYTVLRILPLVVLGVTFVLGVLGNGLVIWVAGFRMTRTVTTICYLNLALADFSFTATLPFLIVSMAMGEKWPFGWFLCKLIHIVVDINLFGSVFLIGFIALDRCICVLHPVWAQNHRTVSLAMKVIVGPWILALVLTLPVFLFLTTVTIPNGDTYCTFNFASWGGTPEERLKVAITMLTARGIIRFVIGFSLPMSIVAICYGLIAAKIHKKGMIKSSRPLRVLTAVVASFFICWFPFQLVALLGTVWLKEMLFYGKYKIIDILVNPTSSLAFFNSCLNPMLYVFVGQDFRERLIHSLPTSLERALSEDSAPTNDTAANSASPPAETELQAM", "assay": "Intracellular calcium measurements (FLIPR) in HEK293-hALXR-Gα16 cells, agonistic activity", "assay_type": "cell-based", "details": "values normalized to WKYMVm 10 nM", "procedure,_shortened": "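HEK293 cells co-expressing human ALX receptor and Gα16, loaded with 1 μM Fluo-4 AM (60 min, 37 °C), then exposed to serially diluted compound. Peak fluorescence above baseline (ex 488/em 540 nm) was recorded after compound addition. Values were normalized to 10 nM WKYMVm as the high control, after subtracting the buffer-addition baseline.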"}
{"smiles": "O=C(OCCCC(F)(F)CN1CCCC1)[C@H]1[C@H](C(=O)Nc2ccc(Br)nc2)[C@@H]2CC[C@H]1C21CC1", "note": "[Example 78, (1S,2R,3R,4R)-[(4,4-Difluoro-5-(pyrrolidin-1-yl))pent-1-yl 2-((6-bromopyridin-3-yl)carbamoyl)spiro[bicyclo[2.2.1]heptane-7,1′-cyclopropane]-3-carboxylate]]", "values": [{"measurement": "EC50", "value": 3.74, "unit": "µM"}]}
